From US20050209278A1, “Piperidinyl- and piperazinyl-sulfonylmethyl hydroxamic acids and their use as protease inhibitors” (priority 2002, published 2005)

Molecular target: T1, MMP-1 (Homo sapiens, UniProt P03956)
T1 construct: made in house; host or cells: MMP-1-transfected HT-1080 cells (spent media)
T1 sequence (P03956 100-469): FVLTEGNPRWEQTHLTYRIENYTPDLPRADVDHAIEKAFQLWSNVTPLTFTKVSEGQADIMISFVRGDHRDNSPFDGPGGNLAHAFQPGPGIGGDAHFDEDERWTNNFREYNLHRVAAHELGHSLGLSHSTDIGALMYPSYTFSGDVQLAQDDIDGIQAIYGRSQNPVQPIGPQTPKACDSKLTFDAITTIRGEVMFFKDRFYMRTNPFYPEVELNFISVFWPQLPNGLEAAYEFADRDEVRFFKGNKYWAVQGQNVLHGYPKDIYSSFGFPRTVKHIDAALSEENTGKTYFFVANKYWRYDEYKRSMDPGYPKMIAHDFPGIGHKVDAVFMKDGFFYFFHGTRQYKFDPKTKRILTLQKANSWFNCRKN
Experiment: In vitro MMP inhibition, IC50 determination (fluorogenic substrate I)
Type: biochemical
Conditions: value in parenthesis; read-out: MMP-1 (IC-50)
Procedure: Several hydroxamic acids and salts thereof were analyzed in in vitro assays to determine their ability to inhibit the MMP cleavage of peptide substrates. […] and IC50 constants were calculated from the assayed hydroxamic acid-MMP interactions. Human recombinant MMP-1, MMP-2, MMP-9, MMP-13, and MMP-14 were used in this assay. All enzymes were prepared in Assignee's laboratories following usual laboratory procedures. Protocols for the preparation and use of these enzymes are available in the scientific literature. See, e.g., Enzyme Nomenclature (Academic Press, San Diego, Calif., 1992) (and the citations therein). See also, Freije et al., “Molecular cloning and expression of collagenase-3, a novel human matrix metalloproteinase produced by breast carcinomas,” J Biol. Chem., 269(24), 16766-16773 (1994). The MMP-1 proenzyme was purified from the spent media of MMP-1-transfected HT-1080 cells provided by Dr. Harold Welgus of Washington University (St. Louis, Mo.). The protein was purified on a zinc chelating column. All MMPs were activated using 4-aminophenylmercuric acetate (“APMA”, Sigma Chemical, St. Louis, Mo.) or trypsin. MMP-9 also was activated using human recombinant MMP-3 (purified in Assignee's laboratory following standard cloning and purification techniques). […] Substrate (I) was purchased from Baychem (Redwood City, Calif.), and substrate II was prepared Assignee's laboratory. Substrate I was used in the IC50 determination assays, while substrate II was used in the Ki determination assays. In the absence of MMP inhibitory activity, either substrate is cleaved at the Gly-Leu peptide bond. […] The stock solutions of the assayed hydroxamic acids (or salts thereof) were prepared in 1% dimethyl sulfoxide (DMSO). […] The experiment controls contained the same amount of Buffer A/DMSO as the assayed sample, but contained no hydroxamic acid (or salt thereof). The assays from which the IC50 determinations were made were performed as follows. […] Louis, Mo.). The assayed hydroxamic acid samples were incubated in MicrofluorTM White Plates (Dynatech, Chantilly, Va.) and analyzed on a Perkin Elmer […] plate reader (Norwalk, Conn.). The excitation wavelength was 328 nm, and the emission wavelength-415 nm. […] As stated in the previous paragraph, samples containing varying concentrations of the same assayed hydroxamic acid were prepared. Inhibition was measured as a reduction in fluorescent intensity as a function of MMP inhibitor concentration. […] All values in Table 2 are given in nM units. The IC50 measurements are in parenthesis.

IC50 [µM]	SMILES
> 10	O=C(NO)C1(S(=O)(=O)N2CCN(c3ccc(OC(F)(F)F)cc3)CC2)CCN(C2CC2)CC1 [Example 203]
> 10	CCCCCCc1ccc(N2CCN(S(=O)(=O)C3(C(=O)NO)CCN(CCOC)CC3)CC2)cc1 [Example 199]
> 10	CCCc1ccc(N2CCN(S(=O)(=O)C3(C(=O)NO)CCN(CCOC)CC3)CC2)cc1 [Example 200]

Second part, the compound before the results:

SMILES	IC50 [µM]
COCCN1CCC(C(=O)NO)(S(=O)(=O)N2CCN(c3ccc(Br)cc3)CC2)CC1 [Example 201]	6.85
COCCN1CCC(C(=O)NO)(S(=O)(=O)N2CCN(c3ccc(OC(F)(F)F)cc3)CC2)CC1 [Example 202]	> 10
